Data taken from US11873291B2, “Quinoline cGAS antagonist compounds” (ImmuneSensor Therapeutics, Inc., priority 2020, dated 2024).

molecular target: T1, recombinant human cGAS (aa147-522) (Homo sapiens, UniProt Q8N884); test: In vitro inhibition assay of cGAS activity (ATP consumption, KinaseGlo Max); type: biochemical; conditions: Table 2, read-out: cGAS Inhibition Results IC50
T1 construct: recombinant human cGAS (aa147-522); His6-SUMO (cleaved yes); made in house; host or cells: E. coli BL21/pLys
Protocol: Expression and Purification of Recombinant cGAS Protein: cDNA encoding full-length or amino acids […] of human cGAS was inserted into a modified pET28a vector containing an in-frame His6-SUMO tag. The E. coli strain BL21/pLys harboring the plasmid was induced with 0.5 mM IPTG at 18° C. overnight. His6-SUMO tag was removed by a SUMO protease digestion following purification of the His6-SUMO-cGAS as described previously (Sun et al, 2013, Science 339, 786).
In vitro inhibition assay of cGAS activity: A 60 μL mixture containing 20 mM Tris-Cl, pH 7.5, 5 mM MgCl2, 0.2 mg/mL BSA, 0.01 mg/mL Herring testis DNA, 6.6 μM ATP, 0.1 mM GTP, 1.5 μg/mL of recombinant human cGAS (aa147-522) and serial dilutions of a test compound in DMSO was added to a 96-well plate and incubated at 37° C. for 20 minutes. At the end of reaction, 40 μL of KinaseGlo Max (Promega) was added and chemiluminescence was measured with a luminometer. Inhibitory effect of a compound is evaluated by plotting percentage of ATP consumption against logarithm of compound concentrations. IC50 value was calculated using GraphPad Prism 8 (GraphPad Software, Inc.).
The letter codes for cGAS IC50 include: A (<2 μM); B (2-30 μM); C (>30 μM).

T1 sequence (Q8N884 147-522): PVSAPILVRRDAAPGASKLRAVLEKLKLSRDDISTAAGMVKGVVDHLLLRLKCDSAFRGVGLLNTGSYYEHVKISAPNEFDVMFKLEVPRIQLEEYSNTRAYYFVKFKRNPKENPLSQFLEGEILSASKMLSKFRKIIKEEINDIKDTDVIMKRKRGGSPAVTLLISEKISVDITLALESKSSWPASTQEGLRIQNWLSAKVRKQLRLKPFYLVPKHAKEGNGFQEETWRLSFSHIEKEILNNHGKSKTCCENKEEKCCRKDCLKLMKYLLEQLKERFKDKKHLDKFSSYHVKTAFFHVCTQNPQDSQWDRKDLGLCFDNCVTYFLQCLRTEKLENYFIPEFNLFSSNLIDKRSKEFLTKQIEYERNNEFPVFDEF

Compound | IC50 [nM]
CN(CCNS(N)(=O)=O)c1cc(-n2ccnc2)c2ccc(Cl)c(Cl)c2n1 [I-223, N-(2-((7,8-dichloro-4-(1H-imidazol-1-yl)quinolin-2-yl)(methyl)amino)ethyl)aminosulfonamide] | < 2000
Cc1cc(NCCO)c2ccc(Cl)c(Cl)c2n1 [I-304] | > 30000
O=C(O)C1CN(c2cc(-c3cn[nH]c3)c3ccc(Cl)c(Cl)c3n2)CCO1 (stereo not drawn) [I-369] | < 2000
Clc1ccc2c(-n3ccnc3)cc(Nc3ccccc3)nc2c1 [I-355] | 2000 to 30000
COc1ccc2c(-c3cn[nH]c3)cc(NCCO)nc2c1 [I-377] | > 30000
O=[PH](O)OCC1CCCN(c2cc(-n3ccnc3)c3ccc(Cl)c(Cl)c3n2)C1 (stereo not drawn) [I-110] | < 2000
NS(=O)(=O)CCNc1cc(-c2cn[nH]c2)nc2ccc(C(F)(F)F)cc12 [I-301] | > 30000
O=C(O)c1cccc(-c2cc(-n3ccnc3)c3ccc(C(F)(F)F)cc3n2)c1 [I-49, 3-(4-(1H-imidazol-1-yl)-7-(trifluoromethyl)quinolin-2-yl)benzoic acid] | > 30000
CCOC(=O)C1CCN(c2cc(-n3ccnc3)c3ccc(Cl)cc3n2)C1 (stereo not drawn) [I-447] | > 30000
O=C(O)CC1CCCN(c2cc(-n3ccnc3)c3ccc(Cl)cc3n2)C1 (stereo not drawn) [I-123, 2-(1-(7-chloro-4-(1H-imidazol-1-yl)quinolin-2-yl)piperidin-3-yl)acetic acid] | 2000 to 30000
O=C(NO)[C@@H]1CCCN1c1cc(-n2ccnc2)c2ccc(Cl)c(Cl)c2n1 [I-449] | < 2000
O=C(O)[C@@H]1C[C@@H](Oc2ccccc2)CN1c1cc(-c2cn[nH]c2)c2ccc(Cl)c(Cl)c2n1 [I-361] | 2000 to 30000
NS(=O)(=O)CCNc1cc(NCC(=O)O)nc2c(Cl)c(Cl)ccc12 [I-319, (7,8-dichloro-4-((2-sulfamoylethyl)amino)quinolin-2-yl)glycine] | > 30000
O=S(=O)(NC1CCCN(c2cc(-n3ccnc3)c3ccc(Cl)cc3n2)C1)c1cccnc1 (stereo not drawn) [I-102] | 2000 to 30000
O=C(CO)N1CCOC(CNc2cc(-c3cn[nH]c3)c3ccc(Cl)c(Cl)c3n2)C1 (stereo not drawn) [I-222] | < 2000
Brc1ccc2c(-n3nccn3)ccnc2c1 [I-419] | > 30000
Oc1ccc(-c2cc(-n3ccnc3)c3ccc(Cl)c(Cl)c3n2)cc1 [I-47] | < 2000
CN(CCC(=O)NCC(N)=O)c1cc(-c2cn[nH]c2)c2ccc(Cl)c(Cl)c2n1 [I-195] | < 2000
O=C(O)C1(O)CCCN(c2cc(-n3ccnc3)c3ccc(Cl)c(Cl)c3n2)C1 (stereo not drawn) [I-124] | < 2000
O=C(O)[C@@H]1C[C@@H](Oc2ccccc2)CN1c1cc(-n2ccnc2)c2ccc(Cl)c(Cl)c2n1 [I-362] | > 30000
O=C(O)CN(CC(=O)O)c1cc(-n2ccnc2)c2ccc(Cl)c(Cl)c2n1 [I-174] | < 2000
Clc1ccc2c(-c3cn[nH]c3)cc(NCC3CNCCO3)nc2c1Cl (stereo not drawn) [I-220] | 2000 to 30000
CC(C)[C@H](CC(=O)O)Nc1cc(-n2ccnc2)c2ccc(Cl)c(Cl)c2n1 [I-188] | 2000 to 30000
O[C@@H]1CCCN(c2cc(-n3ccnc3)c3ccc(Cl)c(Cl)c3n2)C1 [I-134] | 2000 to 30000
CC(C)(C)c1cc(C(=O)O)cc(-c2cc(-n3ccnc3)c3ccc(Cl)cc3n2)c1 [I-25] | > 30000
COC(=O)C1CCCN(c2cc(-n3ccnc3)c3ccc(Cl)cc3n2)C1 (stereo not drawn) [I-126] | 2000 to 30000

Compound | IC50 [nM]
COCCN(C)c1cc(-n2ccnc2)c2ccc(Cl)c(Cl)c2n1 [I-244] | < 2000
NS(=O)(=O)CCNc1cc(Cl)c2ccc(Cl)c(Cl)c2n1 [I-295] | > 30000
CN(C)S(=O)(=O)CCNc1cc(-n2ccnc2)c2ccc(Cl)c(Cl)c2n1 [I-202] | < 2000
CN(CCC(=O)NCc1ccccc1)c1cc(-c2cn[nH]c2)c2ccc(Cl)c(Cl)c2n1 [I-193, N-benzyl-3-((7,8-dichloro-4-(1H-pyrazol-4-yl)quinolin-2-yl)(methyl)amino)propenamide] | 2000 to 30000
CC(CN1CCOCC1)Nc1cc(-c2cn[nH]c2)c2ccc(Cl)c(Cl)c2n1 (stereo not drawn) [I-211] | 2000 to 30000
CN(CCC(=O)NCCO)c1cc(-c2cn[nH]c2)c2ccc(Cl)c(Cl)c2n1 [I-194] | < 2000
Clc1ccc2c(-n3ccnc3)cc(-c3ccc4nn[nH]c4c3)nc2c1 [I-35] | 2000 to 30000
O=C(O)CCNc1cc(-n2ccnc2)c2ccc(Cl)cc2n1 [I-182] | 2000 to 30000
O=C(O)C1CCCN(c2cc(-n3ccnc3)c3ccc(Cl)cc3n2)CC1 (stereo not drawn) [I-363] | 2000 to 30000
CC(C)N(CCS(=O)(=O)O)c1cc(-n2ccnc2)c2ccc(Cl)c(Cl)c2n1 [I-165] | < 2000
O=C(O)[C@H]1CCCN1c1cc(-n2ccnc2)c2ccc(Cl)c(Cl)c2n1 [I-374] | < 2000
N#CCc1cn(-c2cc(-c3ccccc3)nc3cc(Cl)ccc23)cn1 [I-64] | > 30000
O=C(O)C1CCN(C(=O)C[C@@H]2CCCN2c2cc(-n3ccnc3)c3ccc(Cl)c(Cl)c3n2)C1 (stereo partly drawn) [I-339] | < 2000
O=C(N[C@@H]1C[C@@H](C(=O)O)N(c2cc(-n3ccnc3)c3ccc(Cl)c(Cl)c3n2)C1)c1ccccc1 [I-350] | < 2000
Brc1ccc2nccc(-n3ccnc3)c2c1 [I-409] | > 30000
Clc1ccc2c(-n3ccnc3)cc(Oc3ccccc3)nc2c1 [I-278] | 2000 to 30000
Cc1cc(NC2CCCCC2C(=O)O)c2ccc(Cl)c(Cl)c2n1 (stereo not drawn) [I-316] | > 30000
O=C(O)CCNC(=O)[C@H]1CN(c2cc(-c3cn[nH]c3)c3ccc(Cl)c(Cl)c3n2)CCO1 [I-344] | < 2000
O[C@H]1CCCN(c2cc(-n3ccnc3)c3ccc(Cl)c(Cl)c3n2)C1 [I-133] | < 2000
OCCCc1cc(-c2cn[nH]c2)c2ccc(Cl)c(Cl)c2n1 [I-271, 3-(7,8-dichloro-4-(1H-pyrazol-4-yl)quinolin-2-yl)propan-1-ol] | 2000 to 30000
O=C(O)COc1c(Br)ccc2c(-n3ccnc3)cc(-c3ccccc3)nc12 [I-379, 2-((7-bromo-4-(1H-imidazol-1-yl)-2-phenylquinolin-8-yl)oxy)acetic acid] | 2000 to 30000
COc1ccc(-c2cc(-c3cn[nH]c3)c3ccc(Cl)c(Cl)c3n2)cc1C(=O)O [I-427] | < 2000
C[C@@H](Nc1cc(-c2cn[nH]c2)c2ccc(Cl)c(Cl)c2n1)C(=O)OC(C)(C)C [I-402] | 2000 to 30000
NS(=O)(=O)OCC1CN(c2cc(-n3ccnc3)c3ccc(Cl)c(Cl)c3n2)CCO1 (stereo not drawn) [I-96] | < 2000
CN(C)C(=O)CCN(C)c1cc(-c2cn[nH]c2)c2ccc(Cl)c(Cl)c2n1 [I-197] | < 2000

same assay, conditions: Table 3, read-out: cGAS Inhibition Results IC50

Compound | IC50 [nM]
O=C(O)[C@@H]1[C@@H](F)CCN1c1cc(-n2ccnc2)c2ccc(Cl)c(Cl)c2n1 [I-651] | < 2000
O=C(O)C1CN(C(=O)[C@@H]2CCCN2c2cc(-n3ccnc3)c3ccc(Cl)c(Cl)c3n2)CCO1 (stereo partly drawn) [I-549] | < 2000
CN(CCS(=O)(=O)NC1CCC(C(=O)O)C1)c1cc(-n2ccnc2)c2ccc(Cl)c(Cl)c2n1 (stereo not drawn) [I-625] | < 2000
CN(CCC(=O)O)C[C@@H]1CCCN1c1cc(-n2ccnc2)c2ccc(Cl)c(Cl)c2n1 [I-754, (S)-3-(((1-(7,8-dichloro-4-(1H-imidazol-1-yl)quinolin-2-yl)pyrrolidin-2-yl)methyl)(methyl)amino)propanoic acid] | 2000 to 30000
O=C(O)[C@@H]1CN(c2cc(-n3ccnc3)c3ccc(Cl)c(Cl)c3n2)CCO1 [I-521] | < 2000
O=C(O)CO[C@@H]1CCN(c2cc(-n3ccnc3)c3ccc(Cl)c(Cl)c3n2)C1 [I-766] | < 2000
NC(=O)CCNC(=O)[C@@H]1CCCN1c1cc(-n2ccnc2)c2ccc(Cl)c(Cl)c2n1 [I-554] | 2000 to 30000
CC1(C)C2[C@@H](C(=O)O)N(c3cc(-n4ccnc4)c4ccc(Cl)c(Cl)c4n3)C[C@@H]21 (stereo partly drawn) [I-517] | < 2000
CN(CCNS(=O)(=O)CCC(=O)O)c1cc(-n2ccnc2)c2ccc(Cl)c(Cl)c2n1 [I-617] | < 2000
CN(CCS(=O)(=O)N1CCCCC1C(=O)O)c1cc(-n2ccnc2)c2ccc(Cl)c(Cl)c2n1 (stereo not drawn) [I-629] | < 2000
O=C(O)CCCCCOC[C@@H]1CCCN1c1cc(-n2ccnc2)c2ccc(Cl)c(Cl)c2n1 [I-675, (S)-6-((1-(7,8-dichloro-4-(1H-imidazol-1-yl)quinolin-2-yl)pyrrolidin-2-yl)methoxy)hexanoic acid] | < 2000
CC1(C)CCN(c2cc(-n3ccnc3)c3ccc(Cl)c(Cl)c3n2)C1C(=O)O (stereo not drawn) [I-483] | 2000 to 30000
CN(CCS(=O)(=O)NCCCO)c1cc(-n2ccnc2)c2ccc(Cl)c(Cl)c2n1 [I-632] | < 2000
CC(C)(C)OC(=O)[C@@H]1CCCN1c1cc(-n2ccnc2)c2ccc(Cl)c(Cl)c2n1 [I-644] | 2000 to 30000
NC(=O)[C@@H]1[C@@H](O)CCN1c1cc(-n2ccnc2)c2ccc(Cl)c(Cl)c2n1 [I-557] | < 2000
CN(CC(=O)NCCC(N)=O)c1cc(-n2ccnc2)c2ccc(Cl)c(Cl)c2n1 [I-568] | 2000 to 30000
O=C(C[C@@H]1CCCN1c1cc(-n2ccnc2)c2ccc(Cl)c(Cl)c2n1)NS(=O)(=O)C(F)F [I-540] | < 2000
COC(=O)C(O)[C@@H]1CCCN1c1cc(-n2ccnc2)c2ccc(Cl)c(Cl)c2n1 (stereo partly drawn) [I-662] | 2000 to 30000
